The text below walks through data of patent publication US8158628B2, “Sulfonylated 1,2,3,4-tetrahydropyrrolo[1,2-a]pyrazine compounds and their use as pharmaceuticals” (Gruenenthal GmbH, priority 2009, dated 2012).

By inhibition is commonly meant the change of the read-out against control, counted positive when it falls.

For one test, the target named is T1, B1R of the rat (Rattus norvegicus, UniProt P97583).
T1 construct: expressed in transfected cells; host or cells: CHO K1 cells (Chinese hamster ovary), stably transfected
T1 sequence (P97583 1-337): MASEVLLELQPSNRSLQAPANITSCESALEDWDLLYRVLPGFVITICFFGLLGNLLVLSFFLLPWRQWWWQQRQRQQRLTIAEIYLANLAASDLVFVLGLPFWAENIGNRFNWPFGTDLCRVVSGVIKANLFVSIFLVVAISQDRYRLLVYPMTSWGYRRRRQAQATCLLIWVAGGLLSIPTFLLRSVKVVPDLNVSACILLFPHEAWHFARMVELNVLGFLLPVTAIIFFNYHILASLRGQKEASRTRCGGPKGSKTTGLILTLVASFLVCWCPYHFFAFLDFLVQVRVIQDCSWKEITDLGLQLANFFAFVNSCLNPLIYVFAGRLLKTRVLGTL
Briefly: FLIPR Ca2+ functional assay, B1R antagonism, rat B1R in CHO K1 cells. It is filed as cell-based. The settings on record: test substance 10 μM; rB1R CHO K1 cells; agonist Des-Arg9 bradykinin at EC80; % of maximum achievable inhibition. In outline: (§1)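 Stably transfected CHO K1 cells loaded with Fluo-4; Ca2+ fluorescence read on FLIPR (ex 488/em 540 nm). Compound preincubated 10-20 min, then agonist at EC80: Lys-Des-Arg9 bradykinin (human) or Des-Arg9 bradykinin (rat). % inhibition vs maximal inhibition; IC50 from concentration series, n=2-3, N>=2.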

In another test the target is T2, human B1R (Homo sapiens, UniProt P46663).
T2 construct: expressed in transfected cells; host or cells: CHO K1 cells (Chinese hamster ovary), stably transfected
T2 sequence (P46663 1-353): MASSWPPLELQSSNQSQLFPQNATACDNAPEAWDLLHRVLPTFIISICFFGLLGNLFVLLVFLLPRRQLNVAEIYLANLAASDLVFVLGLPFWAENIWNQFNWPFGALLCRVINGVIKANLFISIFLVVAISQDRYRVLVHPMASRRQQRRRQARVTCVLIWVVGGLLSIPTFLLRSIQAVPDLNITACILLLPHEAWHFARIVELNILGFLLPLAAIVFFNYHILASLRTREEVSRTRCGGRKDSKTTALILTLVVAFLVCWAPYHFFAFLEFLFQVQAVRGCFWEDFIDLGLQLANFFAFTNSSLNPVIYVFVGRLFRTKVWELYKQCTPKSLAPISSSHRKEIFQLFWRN
Briefly: FLIPR Ca2+ functional assay, B1R antagonism, human B1R in CHO K1 cells. It is filed as cell-based. To be noted: test substance 10 μM; hB1R CHO K1 cells; agonist Lys-Des-Arg9 bradykinin at EC80; % of maximum achievable inhibition. The essentials: as §1

As to `Cc1ccc(S(=O)(=O)N2CCn3cccc3C2CC(=O)NC2CCCc3cc(CN4CCCc5ccccc54)ccc32)cc1` (stereo not drawn) [Example 129, 2-[2-(p-Tolylsulfonyl)-1,2,3,4-tetrahydro-pyrrolo[1,2-a]pyrazin-1-yl]-N-[6-(1,2,3,4-tetrahydro-quinolin-1-yl-methyl)-1,2,3,4-tetrahydro-naphthalen-1-yl]-acetamide], the inhibition at 10 µM amounted to 74.7% on B1R of the rat and 46.1% at human B1R.
For `COc1ccc2cc(S(=O)(=O)N3CCn4cccc4C3CC(=O)NC3CCCc4cc(CN5CCCc6ccccc65)ccc43)ccc2c1` (stereo not drawn) [Example 130, 2-[2-[(6-Methoxy-naphthalen-2-yl)sulfonyl]-1,2,3,4-tetrahydro-pyrrolo[1,2-a]pyrazin-1-yl]-N-[6-(1,2,3,4-tetrahydro-quinolin-1-yl-methyl)-1,2,3,4-tetrahydro-naphthalen-1-yl]-acetamide], the inhibition at 10 µM on B1R of the rat was determined as 98.8%; at human B1R, 73.6%.
For `CCC(C)NCc1ccc2c(c1)CCCC2NC(=O)CC1c2cccn2CCN1S(=O)(=O)c1cccc(C(F)(F)F)c1` (stereo not drawn) [Example 131, N-[6-[(1-Methyl-propylamino)-methyl]-1,2,3,4-tetrahydro-naphthalen-1-yl]-2-[2-[[3-(trifluoromethyl)phenyl]sulfonyl]-1,2,3,4-tetrahydro-pyrrolo[1,2-a]pyrazin-1-yl]-acetamide], the inhibition at 10 µM at B1R of the rat worked out at 101%; on human B1R, 99.8%.
Take `CCC(C)NCc1ccc2c(c1)CCCC2NC(=O)CC1c2cccn2CCN1S(=O)(=O)c1ccc(C)c(Cl)c1` (stereo not drawn) [Example 132, 2-[2-[(3-Chloro-4-methyl-phenyl)sulfonyl]-1,2,3,4-tetrahydro-pyrrolo[1,2-a]pyrazin-1-yl]-N-[6-[(1-methyl-propylamino)-methyl]-1,2,3,4-tetrahydro-naphthalen-1-yl]-acetamide]: the inhibition at 10 µM turned out to be 102% at B1R of the rat and 99.8% at human B1R.
Taken in the same sequence, the figures for `CNCc1ccc2c(c1)CCCC2NC(=O)CC1c2cccn2CCN1S(=O)(=O)c1ccc(C)cc1` (stereo not drawn) [Example 133, N-[6-(Methylamino-methyl)-1,2,3,4-tetrahydro-naphthalen-1-yl]-2-[2-(p-tolylsulfonyl)-1,2,3,4-tetrahydro-pyrrolo[1,2-a]pyrazin-1-yl]-acetamide] were 104% and 99.4%.
Turning to `CNCc1ccc2c(c1)CCCC2NC(=O)CC1c2cccn2CCN1S(=O)(=O)c1ccc2cc(OC)ccc2c1` (stereo not drawn) [Example 134, 2-[2-[(6-Methoxy-naphthalen-2-yl)sulfonyl]-1,2,3,4-tetrahydro-pyrrolo[1,2-a]pyrazin-1-yl]-N-[6-(methylamino-methyl)-1,2,3,4-tetrahydro-naphthalen-1-yl]-acetamide], the inhibition at 10 µM on B1R of the rat stood at 103%; at human B1R it was 99.8%.
Taken in the same sequence, the figures for `CNCc1ccc2c(c1)CCCC2NC(=O)CC1c2cccn2CCN1S(=O)(=O)c1cccc(C(F)(F)F)c1` (stereo not drawn) [Example 135, N-[6-(Methylamino-methyl)-1,2,3,4-tetrahydro-naphthalen-1-yl]-2-[2-[[3-(trifluoromethyl)phenyl]sulfonyl]-1,2,3,4-tetrahydro-pyrrolo[1,2-a]pyrazin-1-yl]-acetamide] were 104% and 99.6%.
As for `CNCc1ccc2c(c1)CCCC2NC(=O)CC1c2cccn2CCN1S(=O)(=O)c1ccc(C)c(Cl)c1` (stereo not drawn) [Example 136, 2-[2-[(3-Chloro-4-methyl-phenyl)sulfonyl]-1,2,3,4-tetrahydro-pyrrolo[1,2-a]pyrazin-1-yl]-N-[6-(methylamino-methyl)-1,2,3,4-tetrahydro-naphthalen-1-yl]-acetamide], the inhibition at 10 µM on B1R of the rat was -29.2%; on human B1R it was 99.7%.
As for `CNCc1ccc2c(c1)CCC(NC(=O)CC1c3cccn3CCN1S(=O)(=O)c1ccc3cc(OC)ccc3c1)C2` (stereo not drawn) [Example 137, 2-[2-[(6-Methoxy-naphthalen-2-yl)sulfonyl]-1,2,3,4-tetrahydro-pyrrolo[1,2-a]pyrazin-1-yl]-N-[6-(methylamino-methyl)-1,2,3,4-tetrahydro-naphthalen-2-yl]-acetamide], the inhibition at 10 µM at B1R of the rat was 104%; at human B1R, 99.7%.
Regarding `CNCc1ccc2c(c1)CCC(NC(=O)CC1c3cccn3CCN1S(=O)(=O)c1ccc(C)c(Cl)c1)C2` (stereo not drawn) [Example 138, 2-[2-[(3-Chloro-4-methyl-phenyl)sulfonyl]-1,2,3,4-tetrahydro-pyrrolo[1,2-a]pyrazin-1-yl]-N-[6-(methylamino-methyl)-1,2,3,4-tetrahydro-naphthalen-2-yl]-acetamide], the inhibition at 10 µM at B1R of the rat was 103%; at human B1R it was 99.8%.
In the case of `CNCc1ccc2c(c1)CCC(NC(=O)CC1c3cccn3CCN1S(=O)(=O)c1cccc(C(F)(F)F)c1)C2` (stereo not drawn) [Example 139, N-[6-(Methylamino-methyl)-1,2,3,4-tetrahydro-naphthalen-2-yl]-2-[2-[[3-(trifluoromethyl)phenyl]sulfonyl]-1,2,3,4-tetrahydro-pyrrolo[1,2-a]pyrazin-1-yl]-acetamide], the values for the inhibition at 10 µM at B1R of the rat and at human B1R were 103% and 99.1%, respectively.
The corresponding values for `CNCc1ccc2c(c1)CCC(NC(=O)CC1c3cccn3CCN1S(=O)(=O)c1ccc(C)cc1)C2` (stereo not drawn) [Example 140, N-[6-(Methylamino-methyl)-1,2,3,4-tetrahydro-naphthalen-2-yl]-2-[2-(p-tolylsulfonyl)-1,2,3,4-tetrahydro-pyrrolo[1,2-a]pyrazin-1-yl]-acetamide] are 102% and 96.1%.
